Source: patent publication US11358968B2, “Substituted epoxyeicosatrienoic acid (EET) analogs for treatment of kidney disease” (THE MEDICAL COLLEGE OF WISCONSIN, INC., priority 2017, dated 2022)
“Also recorded” adds a separate entry of the source. Like-named read-outs stand apart in the source and are kept apart here.

Assays:
[1] = Acute i.v. infusion in rats; plasma and kidney levels by LC-MS-MS; format: in vivo, rat; details: for concentration at 6 h: male, Sprague-Dawley, intravenous
Protocol: For EET analog kidney-targeted delivery, we conjugated an EET analog to folic acid because there is a high concentration of folate receptors in renal tissue. The EET analog was conjugated to folic acid via a PEG-diamine linker. Next, we compared the kidney targeted EET analog, EET-FO1, to a well-studied EET analog, EET-A. EET-A or EET-FO1 was infused i.v. (10 mg/kg/hr) for 6 hours via the rat jugular vein. Plasma and kidney tissue were collected and EET-A or EET-FO1 measured by LC-MS-MS. EET-A plasma level was 1.6 ng/mL, but EET-A was undetectable in the kidney. On the other hand, EET-FO1 was 6.5 ng/mL in plasma and 26.7 ng/mL in kidney tissue. […] Experiments were conducted to compare EET-FO1 and EET-A to decrease cisplatin-induced nephrotoxicity. […] Despite it almost 2×-greater molecular weight compared with EET-A, EET-FO1 was effective in lowering BUN and NAG at 20 mg/kg/d and at a 10-fold lower dose of 2 mg/kg/d.
Acute study: Overnight fasted (12-14 hrs) male SD rats (10 weeks old) were anesthetized with sodium pentobarbital (60 mg/kg, i.p.). After a tracheostomy, the left jugular vein was cannulated to continuously infuse vehicle or EET-A or folate conjugated EET analog at a rate of 6 ml/kg/hr for 6 hours. Plasma and kidney sample were collected at the end of the protocol, snap-frozen in liquid nitrogen and stored at −80° C. until analyzed for LC-MS. EET-A and folate conjugated EET analog solutions were prepared in 0.1% DMSO and 1% PEG-400 in saline.
Mass spectrometric analysis: Plasma and kidney levels of EET-A and folate conjugated EET-A were measured by LC-ESI-MS method. Samples were prepared from 200 μl of plasma or kidney homogenate from EET-A or folate conjugated EET-A treated rats using solid phase extraction with Varian Bond Elut® C18 column (Agilent Technologies, Santa Clara, Calif., USA). The extracted samples were stored at −80° C. before analysis. Samples were warmed to room temperature, dried in a stream of nitrogen and the residue reconstituted in 20 μL of acetonitrile, […]. Components were resolved on a 250 mm×2.0 mm Kromasil C18-column packed with 5 μm diameter particles having 100 Å pores. Gradient elution from 80% A to 10% A was used with elutant flow of 0.2 mL/min. Solvent A was water with 0.01% formic acid and solvent B was acetonitrile with 0.01% formic acid using the following profile: 20% B to 30% B in 10 min, 30% B to 60% B in 17 min, 60% B to 90% B in 28 min, hold at 100% for 7 min, then 7 min re-equilibration. MS/MS analysis was performed on an Agilent 6460 triple quadrupole mass spectrometer equipped with a Jet Stream™ interface. Precursor ion, product ion, collision energy and fragmenter voltage were optimized for each compound in negative polarity. Other parameters were as follows: drying gas flow=10 L/min at 325° C., nebulizer=20 psi, sheath gas flow=11 L/min at 325° C., capillary=3.5 kV, and nozzle=1.0 kV. Results acquired at unit-mass resolution.

[2] = earlier filings PCT/US2012/032090, US 9,422,318, US 9,127,027; cited from earlier work
WKY rats = test: Cisplatin-induced nephrotoxicity in WKY rats (chronic study; BUN, NAG, renal histology); format: in vivo, rat; details: for lowering BUN / lowering NAG: cisplatin-treated WKY rats
Protocol: For EET analog kidney-targeted delivery, we conjugated an EET analog to folic acid because there is a high concentration of folate receptors in renal tissue. The EET analog was conjugated to folic acid via a PEG-diamine linker. Next, we compared the kidney targeted EET analog, EET-FO1, to a well-studied EET analog, EET-A. EET-A or EET-FO1 was infused i.v. (10 mg/kg/hr) for 6 hours via the rat jugular vein. Plasma and kidney tissue were collected and EET-A or EET-FO1 measured by LC-MS-MS.
Chronic study: In chronic study, male Wistar-Kyoto (WKY) rats weighing 180-200 g (Charles River, Mass., USA) were used. The rats were assigned into […] (n=4 in each group). […] While, rats of groups 2,3,4&5 were pre-treated with vehicle (20% DMSO in PEG-400 v/v), EET analog (EET analog in double distilled water) or novel folate conjugated EET analog F01 at 20 mg/kg and 2 mg/kg doses (prepared in a mixture of 20% DMSO in PEG400), respectively in osmotic mini pump (2 ML, Alzet, Cupertino, C A) for seven days. […] One day before euthanasia, the urine of each rat was collected over a 24-h period. […] A schematic of the protocol is depicted in FIG. 1.
Biochemical analysis:The levels of blood urea nitrogen (BUN) (BioAssay Systems, Hayward, Calif., USA) and the activity of urinary N-acetyl-β-(D)-glucosaminidase (NAG) in the urine was measured by a kit from Diazyme (Diazyme Laboratories, Poway, Calif., USA).

[3] = rat, i.v. infusion 10 mg/kg/hr for 6 hours via jugular vein, LC-MS-MS
[4] = five days following cisplatin 7 mg/kg ip, compared with EET-A 10 mg/kg ip

SMILES | level in kidney tissue [1, 3] | plasma level [1, 3] [ng/mL] | oral activity and pharmacokinetic properties [2] | rate of reaching the plasma and the kidney, versus non-folate conjugated form ([1]; acute i.v. study) | plasma level of F01 compared to EET-A ([1]; after 6-hour continuous i.v. administration of equal doses (FIG. 2)) [fold] | kidney targeting ([1]; conclusion from plasma and kidney levels after 6 h i.v. infusion) | concentration at 6 h ([1]; kidney, rat, i.v. infusion 10 mg/kg/hr for 6 hours via jugular vein, LC-MS-MS, read-out: level in kidney tissue) [ng/mL] | concentration at 6 h ([1]; plasma, rat, i.v. infusion 10 mg/kg/hr for 6 hours via jugular vein, LC-MS-MS, read-out: plasma level) [ng/mL] | lowering BUN (WKY rats; 2 mg/kg/d) | lowering NAG (WKY rats; 2 mg/kg/d) | lowering BUN (WKY rats; 20 mg/kg/d) | lowering NAG (WKY rats; 20 mg/kg/d) | decreasing BUN (WKY rats; [4]) | decreasing NAG (WKY rats; [4]) | decreasing renal histological injury (WKY rats; [4]) | kidney protective action against cisplatin nephrotoxicity compared to EET-A (from BUN and urinary NAG) (WKY rats; pre-treatment, then 5 days treatment after cisplatin (FIG. 3), listed as F01)
CCCCCNC(=O)NCCCC/C=C\CCCCCCC(=O)N[C@@H](CC(=O)O)C(=O)O [EET-A, reference compound] | undetectable; also recorded: almost un-detectable | 1.6 | orally active with good pharmacokinetic properties | – | – | – | – | – | – | – | – | – | – | – | – | –
CCCCCCC(=O)N(CCCCCOc1cccc2sc(NC(=O)C(C)(C)C)nc12)C(C)C [EET-B] | – | – | orally active with good pharmacokinetic properties | – | – | – | – | – | – | – | – | – | – | – | – | –
CCCCCNC(=O)NCCCC/C=C\CCCCCCC(=O)NCCOCCOCCNC(=O)CC[C@H](NC(=O)c1ccc(NCc2cnc3nc(N)[nH]c(=O)c3n2)cc1)C(=O)O [EET-FO1] | – | – | – | faster rate | 5 | targets the kidney | 26.7 | 6.5 | effective | effective | effective | effective | as effective as EET-A | as effective as EET-A | as effective as EET-A | better kidney protective action; also recorded: superior kidney protective action
